# Experimental data: patent US20060211725A1, “Use” (Astellas Pharma Inc., priority 2002, published 2006)
# “And” between values parts separate entries of the source, which are not always exact repeats. Equal entries are not always repeated. “Also recorded” adds a separate entry of the source.
# Legend:
# Type in all cases: in vivo, rat
# [1] = system: F344 kidney allograft in LEW recipient rats; assay: Recipient kidney function: plasma creatinine and proteinuria (Example 1); conditions: weekly for 90 days
# Method: (§1) Inbred male Lewis rats (LEW) (RT1^I), weighing 250-300 g, were used as kidney transplantation recipients. Inbred male LEW and Fisher (F344) (RT1^IvI), weighing 250-350 g, were used as isograft and allograft donor rats, respectively. Kidney transplantation was performed using the modified technique of Fisher and Lee. [Fisher et al., Surgery, 58:904-914, 1965] Survival of kidney transplant was measured as time of recipient rat survival. Blood and 24 hr urine samples were collected once a week for plasma creatinine, proteinuria, and the measurement of antibody titer against donor glomeruli basement membrane protein (GBM). Kidney grafts were harvested on the 90th day posttranspalantation and subjected to histology and reverse transcriptase-polymerase chain reaction (RT-PCR) analysis. The compound (I), at doses of 10 mg/kg and 20 mg/kg were administered orally to recipient rats daily from day 0 to day 9 after transplantation. Control isograft and allograft recipients received no drug after transplantation.
# The recipient's kidney function was determined by measuring their plasma creatinine and proteinuria once a week for 90 days. Blood and urine samples were collected from recipients with kidney grafts described in the above. Plasma creatinine was tested by Sigma Creatinine Kit and proteinuria by Bio-Rad Protein assay.
# [2] = system: F344 kidney allograft in LEW recipient rats; assay: Kidney allograft survival, prevention of chronic rejection (Example 1); conditions: 0-9 day; for Survival day: individual rats, n=5; for Survival rate (more than 90 days): untreated allograft 40%
# Method: as §1
# [3] = system: F344 kidney allograft in LEW recipient rats; assay: Kidney graft histology, modified Banff criteria (Example 1); conditions: for Banff grade: Fibro-intimal Hyperplasia / Banff grade: Glomerulitis / Banff grade: Glomerulosclerosis / Banff grade: Inflammation / Banff grade: Mesangiolysis / Banff grade: Transplant Glomerulopathy / Banff grade: Tubular Atrophy / Banff grade: Tubulitis / Banff grade: Vasculitis: graft day 90, one line per rat; for approximate cumulative reduction in Banff score: fibro-intimal hyperplasia / approximate cumulative reduction in Banff score: glomerulitis / approximate cumulative reduction in Banff score: glomerulosclerosis / approximate cumulative reduction in Banff score: interstitial inflammation / approximate cumulative reduction in Banff score: mesangiolysis / approximate cumulative reduction in Banff score: transplant glomerulopathy / approximate cumulative reduction in Banff score: tubular atrophy / approximate cumulative reduction in Banff score: tubulitis / approximate cumulative reduction in Banff score: vasculitis: vs untreated allograft control
# Method: as §1
# Kidney graft tissues were harvested from recipients on day 90th after transplantation for histological analysis. Graft samples were fixed in 10% NBF and subsequently processed then immediately embedded in ParaPlast™ paraffin embedding media. Samples were sectioned at 3 μm, pre-warmed, deparaffinized, rehydrated, and subsequently stained in one of four processes: Hematoxylin and Eosin, Per-Iodic Acid Schiff, Verhoeff's Combined Elastic Trichrome, and Per-Iodic Acid Silver Methenamine. Histological sections were blindly evaluated by two histologists and scored semiquantitatively based on modified Banff' criteria for transplant pathology. [Solez et al., Kidney Int., 44:411-422, 1993]
# [4] = Compound (I) 10 mg/kg PO, 10 mg/kg
structure (smiles),measurement,setting,value
"C#CCC/C(O)=C(\C#N)C(=O)Nc1ccc(C(F)(F)F)cc1 [Compound (I), (2Z)-2-cyano-3-hydroxy-N-[4-(trifluoromethyl)phenyl]-2-hepten-6-ynamide]",plasma creatinine,[1]; 10 mg/kg PO day 0-9,maintained normal creatinine
same,proteinuria,[1]; 10 mg/kg PO day 0-9,undetectable proteinuria
same,plasma creatinine,[1]; 20 mg/kg PO day 0-9,maintained normal creatinine
same,proteinuria,[1]; 20 mg/kg PO day 0-9,undetectable proteinuria
same,Survival day,[2]; [4],28 days and > 90 days
same,Survival rate (more than 90 days),[2]; [4],80%
same,Survival day,[2]; Compound (I) 20 mg/kg PO,>90(5) day
same,Survival rate (more than 90 days),"[2]; Compound (I) 20 mg/kg PO, 20 mg/kg",100%
same,Banff grade: Fibro-intimal Hyperplasia,[3]; 10 mg from day 0-9,"++ ((++):Grade 2, Moderate); also recorded: − ((−):Grade 0, Normal)"
same,Banff grade: Glomerulitis,[3]; 10 mg from day 0-9,"+ ((+):Grade 1, Mild); also recorded: − ((−):Grade 0, Normal)"
same,Banff grade: Glomerulosclerosis,[3]; 10 mg from day 0-9,"− ((−):Grade 0, Normal); also recorded: + ((+):Grade 1, Mild)"
same,Banff grade: Inflammation,[3]; 10 mg from day 0-9,"+ ((+):Grade 1, Mild); also recorded: ++ ((++):Grade 2, Moderate)"
same,Banff grade: Mesangiolysis,[3]; 10 mg from day 0-9,"− ((−):Grade 0, Normal); also recorded: + ((+):Grade 1, Mild)"
same,Banff grade: Transplant Glomerulopathy,[3]; 10 mg from day 0-9,"− ((−):Grade 0, Normal); also recorded: + ((+):Grade 1, Mild)"
same,Banff grade: Tubular Atrophy,[3]; 10 mg from day 0-9,"+ ((+):Grade 1, Mild)"
same,Banff grade: Tubulitis,[3]; 10 mg from day 0-9,"− ((−):Grade 0, Normal)"
same,Banff grade: Vasculitis,[3]; 10 mg from day 0-9,"+ ((+):Grade 1, Mild); also recorded: +++ ((+++):Grade 3, Severe)"
same,approximate cumulative reduction in Banff score: fibro-intimal hyperplasia,[3]; 10 mg/kg PO day 0-9,~63%
same,approximate cumulative reduction in Banff score: glomerulitis,[3]; 10 mg/kg PO day 0-9,~75%
same,approximate cumulative reduction in Banff score: glomerulosclerosis,[3]; 10 mg/kg PO day 0-9,~83%
same,approximate cumulative reduction in Banff score: interstitial inflammation,[3]; 10 mg/kg PO day 0-9,~50%
same,approximate cumulative reduction in Banff score: mesangiolysis,[3]; 10 mg/kg PO day 0-9,~83%
same,approximate cumulative reduction in Banff score: transplant glomerulopathy,[3]; 10 mg/kg PO day 0-9,~79%
same,approximate cumulative reduction in Banff score: tubular atrophy,[3]; 10 mg/kg PO day 0-9,~40%
same,approximate cumulative reduction in Banff score: tubulitis,[3]; 10 mg/kg PO day 0-9,~100%
same,approximate cumulative reduction in Banff score: vasculitis,[3]; 10 mg/kg PO day 0-9,~33%
same,Banff grade: Fibro-intimal Hyperplasia,[3]; 20 mg from day 0-9,"++ ((++):Grade 2, Moderate); also recorded: + ((+):Grade 1, Mild)"
same,Banff grade: Glomerulitis,[3]; 20 mg from day 0-9,"++ ((++):Grade 2, Moderate); also recorded: + ((+):Grade 1, Mild); also recorded: − ((−):Grade 0, Normal)"
same,Banff grade: Glomerulosclerosis,[3]; 20 mg from day 0-9,"− ((−):Grade 0, Normal)"
same,Banff grade: Inflammation,[3]; 20 mg from day 0-9,"+ ((+):Grade 1, Mild)"
same,Banff grade: Mesangiolysis,[3]; 20 mg from day 0-9,"− ((−):Grade 0, Normal)"
same,Banff grade: Transplant Glomerulopathy,[3]; 20 mg from day 0-9,"− ((−):Grade 0, Normal)"
same,Banff grade: Tubular Atrophy,[3]; 20 mg from day 0-9,"+ ((+):Grade 1, Mild); also recorded: − ((−):Grade 0, Normal)"
same,Banff grade: Tubulitis,[3]; 20 mg from day 0-9,"− ((−):Grade 0, Normal)"
same,Banff grade: Vasculitis,[3]; 20 mg from day 0-9,"+++ ((+++):Grade 3, Severe); also recorded: − ((−):Grade 0, Normal)"
same,approximate cumulative reduction in Banff score: fibro-intimal hyperplasia,[3]; 20 mg/kg PO day 0-9,~44%
same,approximate cumulative reduction in Banff score: glomerulitis,[3]; 20 mg/kg PO day 0-9,~38%
same,approximate cumulative reduction in Banff score: glomerulosclerosis,[3]; 20 mg/kg PO day 0-9,~100%
same,approximate cumulative reduction in Banff score: interstitial inflammation,[3]; 20 mg/kg PO day 0-9,~67%
same,approximate cumulative reduction in Banff score: mesangiolysis,[3]; 20 mg/kg PO day 0-9,~100%
same,approximate cumulative reduction in Banff score: transplant glomerulopathy,[3]; 20 mg/kg PO day 0-9,~100%
same,approximate cumulative reduction in Banff score: tubular atrophy,[3]; 20 mg/kg PO day 0-9,~85%
same,approximate cumulative reduction in Banff score: tubulitis,[3]; 20 mg/kg PO day 0-9,~100%
same,approximate cumulative reduction in Banff score: vasculitis,[3]; 20 mg/kg PO day 0-9,~50%
